In series [1] the test system is human erythrocyte membranes. Briefly: Inhibition of lipoperoxidation in erythrocyte membranes. The format is biochemical.
The nature of series [2]: Cytotoxicity, neutral red uptake assay, AGS. It counts as cell-based. As to conditions: human, AGS gastric epithelial cells, confluent monolayer, read-out: IC50 ± SD, cytotoxicity AGS. On the procedure: (§1) Human lung fibroblasts MRC-5 (ATCC CCL-171) were grown in minimum essential Eagle medium (MEM) with Earles’s salts and 2 mM L-glutamine (Sigma-Aldrich Co.). Human epithelial gastric cells AGS (ATCC CRL-1739) were grown in Ham F-12 medium containing 1 mM L-glutamine. Both media were supplemented with 1.5 g/L sodium bicarbonate (Sigma-Aldrich Co.), 10% heat-inactivated fetal bovine serum (FBS), 100 IU/mL penicillin and 100 µg/mL streptomycin.Both cell lines were grown as monolayers in a humidified incubator with 5% CO2 in air at 37 °C. Culture media, antibiotics and FBS were obtained from Invitrogen Corp.
(§2) Cytotoxicity values were required as a reference to determine the working concentrations in the subsequent experiments. Briefly, confluent cultures of MRC-5 and AGS cells were treated during 24 h with medium containing the compounds at concentrations ranging from 0 up to 1,000 µM. The products were first dissolved in DMSO (1% final concentration) and then in the corresponding culture medium supplemented with 2% FBS. Untreated cells were used as controls. Cell viability was determined at the end of the incubation by means of the neutral red uptake (NRU) assay. Lansoprazole (Sigma-Aldrich Co., min. 98% by TLC) was used as reference compound.

In series [3] the test system is AGS cells. The experiment in a line: Cellular reduced glutathione (GSH) content of AGS cells. The format is cell-based, human. Conditions: 4 h; for GSH: post-confluent AGS, control 13.6 ± 0.7. On the procedure: Untreated cells were used as controls. […] After incubation, the GSH content was determined using a colorimetric kit (BioAssays Systems, Hayward, CA, USA). Results are expressed as nanomol of soluble reduced sulfhydryls/10^6 cells.

The test system of series [4] is AGS cells. Briefly: Sodium taurocholate (NaT)-induced damage to AGS cells. It counts as cell-based, human. Conditions: 60 min pre-treatment, then 10 mM NaT 30 min. On the procedure:
The effect of sodium taurocholate (NaT) on cell viability was determined according to [15]. […] Then, 10 mM NaT was added to all wells for 30 min. Untreated cells were used as controls. […] After incubation, the NRU assay was carried out.

A short description of series [5]: Cytotoxicity, neutral red uptake assay, MRC-5. The format is cell-based. As to conditions: human, MRC-5 lung fibroblasts, confluent monolayer, confluent MRC-5, 24 h, read-out: IC50 ± SD, cytotoxicity MRC-5. On the procedure:
as §1, §2

Series [6] relates to human erythrocyte membranes. Briefly: Inhibition of lipoperoxidation in erythrocyte membranes. The format is biochemical. As to conditions: at 100 µg/mL. On the procedure:
The inhibition of lipid peroxidation was determined using human erythrocyte membranes. The compounds were tested at 100 µg/mL.

Series [7] concerns AGS cells. Briefly: Prostaglandin E2 (PGE2) content of AGS cells. It counts as cell-based, human. As to conditions: 1 h; for PGE2: post-confluent AGS, control 52 ± 5. How it is done: One day after confluence, AGS cells were treated for 1 h with the compounds at 1/2 and 1/4 of the respective IC50 values. A control with medium only was included. Indomethacin (100 μM) was used as standard inhibitor of prostaglandin synthesis (Sigma-Aldrich Co., min. 99% by TLC). After incubation, PGE2 content was determined by means of a specific enzyme immunoassay kit (R & D Systems KGE004B, Minneapolis, MN, USA) and values were calculated according to the manufacturer instructions. Results are expressed as pg/well.

In the case of `O.Oc1cc(O)c2c(c1)O[C@H](c1ccc(O)c(O)c1)[C@@H](O)C2` [Catechin, reference compound], in series [1], the “IC50, inhibition of the lipoperoxidation” value is listed as “IC50 75.4 ± 6.0 µg/mL”.
As a reminder, the IC50 is the point on the concentration scale where inhibition reaches its midpoint. As to `CC(C)CCC1=C(O)C(=O)c2ccccc2C1=O` [Compound 2, Dihydroprenyl lapachol], the IC50 at 24 h in series [2] was 292 ± 12 µM; in series [5], 611 ± 42 µM. Further, the results for the GSH in series [3] (37 µM) and in series [3] (73 µM) were 13.6 ± 0.7 nmol/10^6 cells and 13.8 ± 0.7 nmol/10^6 cells, respectively. Further, the entries for the “reduction in cell viability, NaT-induced damage” value (shortened to “reduction in cell viability”) in series [4] (37 µM), in series [4] (73 µM) and in series [4] (146 µM) were 23%, 23% and 27%, respectively. In series [1], the “IC50, inhibition of the lipoperoxidation” value is on record as “IC50 25.4 ± 2.4 µg/mL”.
`CC(C)=CCC1=C(OC(=O)C[C@H](C)CC[C@H]2[C@@H](C)CCC3[C@]2(C)CCC[C@]3(C)C(=O)O)C(=O)C2=C(CCCC2)C1=O` (stereo partly drawn) [Compound 17, Dihydroprenyl-5,6,7,8-tetrahydrolapachoyl 17β-dihydrojunicedrate]: in series [6], the “% Inhibition of the lipoperoxidation” value came to 48%. Further, the IC50 at 24 h came out at 60 ± 5 µM in series [2] and 44 ± 4 µM in series [5]. Further, the activation at 7.5 µM in series [3] (Homo sapiens, AGS, 7.5 µM, read-out: increase of GSH content compared to untreated controls) worked out at 89%. Further, in series [3] (Homo sapiens, AGS, 15 µM, read-out: increase of GSH content compared to untreated controls), the activation at 15 µM was 51%. For the same compound, the GSH entry in series [3] (7.5 µM) is on record as “** 25.8 ± 1.6 nmol/10^6 cells”; in series [3] (15 µM), “** 20.5 ± 1.0 nmol/10^6 cells”.
Consider `C=C1CCC2[C@](C)(CCC[C@]2(C)C(=O)OC)[C@H]1CC[C@@H](C)CC(=O)OC1=C(CCC(C)C)C(=O)C2=C(CCCC2)C1=O` (stereo partly shown) [Compound 12, Dihydroprenyl-5,6,7,8-tetrahydrolapachoyl junicedrate methyl ester], for which, in series [6], the “% Inhibition of the lipoperoxidation” value is 37%. Also, the IC50 at 24 h in series [2] is above 1000 µM; in series [5], 667 ± 40 µM. The results for the GSH in series [3] (125 µM) and in series [3] (250 µM) were 13.7 ± 1.0 nmol/10^6 cells and 13.9 ± 0.8 nmol/10^6 cells, respectively.
As for `COC(=O)[C@@]1(C)CCC[C@@]2(C)C1CC[C@H](C)[C@@H]2CC[C@@H](C)CC(=O)OC1=C(CC=C(C)C)C(=O)c2ccccc2C1=O` (stereo partly drawn) [Compound 14, Lapachoyl 17β-dihydrojunicedrate methyl ester], the IC50 at 24 h came to 916 ± 54 µM in series [2] and 727 ± 48 µM in series [5]. In addition, the GSH came out at 14.4 ± 0.5 nmol/10^6 cells in series [3] (115 µM) and 12.7 ± 0.4 nmol/10^6 cells in series [3] (229 µM). In series [1], the “IC50, inhibition of the lipoperoxidation” value is reported as “IC50 19.7 ± 1.4 µg/mL”.
In the case of `CC(C)CCC1=C(OC(=O)C[C@H](C)CC[C@H]2[C@@H](C)CCC3[C@]2(C)CCC[C@]3(C)C(=O)O)C(=O)c2ccccc2C1=O` (stereo partly drawn) [Compound 15, Dihydroprenyl lapachol 17β-dihydrojunicedrate], the fold induction at 250 µM in series [7] (Homo sapiens, AGS, 250 µM, read-out: increase in PGE2 content) was found to be 5.4. For the same compound, the fold induction at 500 µM in series [7] (Homo sapiens, AGS, 500 µM, read-out: increase in PGE2 content) came to 7.2. The PGE2 was 279 ± 20 pg/mL in series [7] (250 µM) and 372 ± 25 pg/mL in series [7] (500 µM). The IC50 at 24 h in series [2] and in series [5] was above 1000 µM throughout. In series [3] (Homo sapiens, AGS, 125 µM, read-out: increase of GSH content compared to untreated controls), the activation at 125 µM turned out to be 31%. The activation at 250 µM in series [3] (Homo sapiens, AGS, 250 µM, read-out: increase of GSH content compared to untreated controls) worked out at 35%. Also, the figures for the GSH result in series [3] (125 µM) and in series [3] (250 µM) were “* 17.8 ± 0.9 nmol/10^6 cells” and “* 18.4 ± 1.2 nmol/10^6 cells”, respectively. The “reduction in cell viability” value in series [4] (125 µM) is recorded as 27%; in series [4] (250 µM), 27%; in series [4] (500 µM), 21%. The “IC50, inhibition of the lipoperoxidation” value in series [1] was “IC50 25.3 ± 4.1 µg/mL”.
Consider `COc1ccc2c(c1)c(CC(=O)O)c(C)n2C(=O)c1ccc(Cl)cc1` [Indomethacin, reference compound], for which the PGE2 entry in series [7] (100 µM) is on record as “Not detected”.
Consider `CC(=O)N[C@@H](CS)C(=O)O` [NAC, N-acetyl-L-cysteine, reference compound], for which, in series [3] (Homo sapiens, AGS, 750 µM, read-out: increase of GSH content compared to untreated controls), the activation at 750 µM came out at 30%. The GSH result in series [3] (750 µM) is on record as “* 17.7 ± 1.4 nmol/10^6 cells”.
For `CC(C)CCC1=C(O)C(=O)C2=C(CCCC2)C1=O` [Compound 3, Dihydroprenyl-5,6,7,8-tetrahydrolapachol], the IC50 at 24 h in series [2] came out at 87 ± 4 µM; in series [5], 307 ± 22 µM. Further, the GSH in series [3] (11 µM) came out at 14.3 ± 0.7 nmol/10^6 cells; in series [3] (22 µM), 13.0 ± 0.5 nmol/10^6 cells. Besides, the “IC50, inhibition of the lipoperoxidation” value in series [1] is recorded as “IC50 33.3 ± 2.3 µg/mL”.
Turning to `Cc1c(OCC(F)(F)F)ccnc1C[S+]([O-])c1nc2ccccc2[nH]1` (stereo not shown) [Lansoprazole, reference compound], the half-inhibitory concentration (IC50) at 24 h was 168 ± 8 µM in series [2] and 316 ± 11 µM in series [5].
With `CC(CCC1C(C)CCC2C(C)(C(=O)O)CCCC12C)CC(=O)O` (stereo not drawn) [Compound 6, 17β-Dihydrojunicedric acid], in series [6], the “% Inhibition of the lipoperoxidation” value came out at 30%. The IC50 at 24 h is 283 ± 17 µM in series [2] and 163 ± 5 µM in series [5]. In series [3] (Homo sapiens, AGS, 37 µM, read-out: increase of GSH content compared to untreated controls), the activation at 37 µM was 43%. The activation at 71 µM in series [3] (Homo sapiens, AGS, 71 µM, read-out: increase of GSH content compared to untreated controls) was 60%. Moreover, the GSH result in series [3] (37 µM) is listed as “* 19.5 ± 0.9 nmol/10^6 cells”; in series [3] (71 µM), “** 21.7 ± 1.3 nmol/10^6 cells”.
In the case of `C=C1CCC2[C@](C)(CCC[C@]2(C)C(=O)O)[C@H]1CC[C@@H](C)CC(=O)OC1=C(CC=C(C)C)C(=O)c2ccccc2C1=O` (stereo partly shown) [Compound 7, Lapachoyl junicedrate], the “% Inhibition of the lipoperoxidation” value in series [6] turned out to be 10%. For the same compound, the IC50 at 24 h came to 143 ± 6 µM in series [2] and 221 ± 13 µM in series [5]. Besides, the activation at 18 µM in series [3] (Homo sapiens, AGS, 18 µM, read-out: increase of GSH content compared to untreated controls) was determined as 18%. Moreover, in series [3] (Homo sapiens, AGS, 36 µM, read-out: increase of GSH content compared to untreated controls), the activation at 36 µM worked out at 23%. Besides, the GSH is recorded as 16.1 ± 0.9 nmol/10^6 cells in series [3] (18 µM) and “* 16.7 ± 0.7 nmol/10^6 cells” in series [3] (36 µM).
Turning to Sucralfate [reference compound], the “reduction in cell viability” value in series [4] (4 mg/mL (580 µM)) was 35%.
Turning to `C=C1CCC2[C@](C)(CCC[C@]2(C)C(=O)O)[C@H]1CC[C@@H](C)CC(=O)O` (stereo partly shown) [Compound 4, Junicedric acid], in series [6], the “% Inhibition of the lipoperoxidation” value was determined as 25%. Also, the IC50 at 24 h in series [2] stood at 383 ± 23 µM; in series [5], 439 ± 26 µM. Also, the GSH entry in series [3] (48 µM) was “* 18.4 ± 1.1 nmol/10^6 cells”; in series [3] (96 µM), “* 17.2 ± 1.0 nmol/10^6 cells”.
